This is an account of results in patent US20050282743A1, “Molecular interactions in cells” (Arbor Vita Corporation, priority 2001, published 2005).

What all share (type): binding
For experiment [1], the target named is T1, PDZ-domain polypeptide (GST/PDZ fusion protein) (Homo sapiens, UniProt Q92796).
T1 construct: made in house; host or cells: E. coli (DH5alpha, BL21 or JM109)
T1 sequence (Q92796 1-817): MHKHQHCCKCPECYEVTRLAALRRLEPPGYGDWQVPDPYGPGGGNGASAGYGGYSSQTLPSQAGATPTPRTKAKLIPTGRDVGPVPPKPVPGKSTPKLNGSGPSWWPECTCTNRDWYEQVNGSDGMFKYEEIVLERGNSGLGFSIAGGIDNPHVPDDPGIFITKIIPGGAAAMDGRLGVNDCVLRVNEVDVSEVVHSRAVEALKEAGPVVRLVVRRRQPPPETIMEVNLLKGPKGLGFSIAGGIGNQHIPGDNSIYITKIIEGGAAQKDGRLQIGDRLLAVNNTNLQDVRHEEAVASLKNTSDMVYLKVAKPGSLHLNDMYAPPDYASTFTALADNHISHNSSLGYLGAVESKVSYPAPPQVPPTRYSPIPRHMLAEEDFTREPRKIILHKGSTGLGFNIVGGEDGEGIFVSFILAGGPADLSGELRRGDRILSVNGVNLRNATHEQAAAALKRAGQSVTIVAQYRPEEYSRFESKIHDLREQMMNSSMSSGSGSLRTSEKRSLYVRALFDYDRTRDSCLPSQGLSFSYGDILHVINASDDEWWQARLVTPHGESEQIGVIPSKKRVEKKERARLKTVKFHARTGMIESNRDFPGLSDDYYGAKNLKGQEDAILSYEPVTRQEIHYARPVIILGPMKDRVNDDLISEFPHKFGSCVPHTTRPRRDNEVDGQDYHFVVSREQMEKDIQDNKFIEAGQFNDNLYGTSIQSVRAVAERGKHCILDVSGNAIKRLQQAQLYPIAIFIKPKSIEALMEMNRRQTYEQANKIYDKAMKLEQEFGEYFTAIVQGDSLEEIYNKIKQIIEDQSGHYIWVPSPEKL
The experiment in a line: Apparent affinity (Kd) by titration of PL peptide in the G assay. Conditions: PDZ NeDLG. The gist of the method: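 A fixed concentration of GST/PDZ fusion protein, 5 ug/ml by default, was mixed in solution with increasing labeled PL peptide (e.g. 0.1 uM-1 mM). Reaction times ranged from 10 minutes to 2 days at 4-37° C. Complexes were separated from free peptide and detected via the label as in the G assay, apparent affinity coming from the saturating concentration.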

In experiment [2] the target is T2, PDZ protein (GST-PDZ fusion) (Homo sapiens, UniProt P55196).
T2 construct: made in house; host or cells: E. coli (DH5alpha, BL21 or JM109)
T2 sequence (P55196 whole entry, the tested form may be a part): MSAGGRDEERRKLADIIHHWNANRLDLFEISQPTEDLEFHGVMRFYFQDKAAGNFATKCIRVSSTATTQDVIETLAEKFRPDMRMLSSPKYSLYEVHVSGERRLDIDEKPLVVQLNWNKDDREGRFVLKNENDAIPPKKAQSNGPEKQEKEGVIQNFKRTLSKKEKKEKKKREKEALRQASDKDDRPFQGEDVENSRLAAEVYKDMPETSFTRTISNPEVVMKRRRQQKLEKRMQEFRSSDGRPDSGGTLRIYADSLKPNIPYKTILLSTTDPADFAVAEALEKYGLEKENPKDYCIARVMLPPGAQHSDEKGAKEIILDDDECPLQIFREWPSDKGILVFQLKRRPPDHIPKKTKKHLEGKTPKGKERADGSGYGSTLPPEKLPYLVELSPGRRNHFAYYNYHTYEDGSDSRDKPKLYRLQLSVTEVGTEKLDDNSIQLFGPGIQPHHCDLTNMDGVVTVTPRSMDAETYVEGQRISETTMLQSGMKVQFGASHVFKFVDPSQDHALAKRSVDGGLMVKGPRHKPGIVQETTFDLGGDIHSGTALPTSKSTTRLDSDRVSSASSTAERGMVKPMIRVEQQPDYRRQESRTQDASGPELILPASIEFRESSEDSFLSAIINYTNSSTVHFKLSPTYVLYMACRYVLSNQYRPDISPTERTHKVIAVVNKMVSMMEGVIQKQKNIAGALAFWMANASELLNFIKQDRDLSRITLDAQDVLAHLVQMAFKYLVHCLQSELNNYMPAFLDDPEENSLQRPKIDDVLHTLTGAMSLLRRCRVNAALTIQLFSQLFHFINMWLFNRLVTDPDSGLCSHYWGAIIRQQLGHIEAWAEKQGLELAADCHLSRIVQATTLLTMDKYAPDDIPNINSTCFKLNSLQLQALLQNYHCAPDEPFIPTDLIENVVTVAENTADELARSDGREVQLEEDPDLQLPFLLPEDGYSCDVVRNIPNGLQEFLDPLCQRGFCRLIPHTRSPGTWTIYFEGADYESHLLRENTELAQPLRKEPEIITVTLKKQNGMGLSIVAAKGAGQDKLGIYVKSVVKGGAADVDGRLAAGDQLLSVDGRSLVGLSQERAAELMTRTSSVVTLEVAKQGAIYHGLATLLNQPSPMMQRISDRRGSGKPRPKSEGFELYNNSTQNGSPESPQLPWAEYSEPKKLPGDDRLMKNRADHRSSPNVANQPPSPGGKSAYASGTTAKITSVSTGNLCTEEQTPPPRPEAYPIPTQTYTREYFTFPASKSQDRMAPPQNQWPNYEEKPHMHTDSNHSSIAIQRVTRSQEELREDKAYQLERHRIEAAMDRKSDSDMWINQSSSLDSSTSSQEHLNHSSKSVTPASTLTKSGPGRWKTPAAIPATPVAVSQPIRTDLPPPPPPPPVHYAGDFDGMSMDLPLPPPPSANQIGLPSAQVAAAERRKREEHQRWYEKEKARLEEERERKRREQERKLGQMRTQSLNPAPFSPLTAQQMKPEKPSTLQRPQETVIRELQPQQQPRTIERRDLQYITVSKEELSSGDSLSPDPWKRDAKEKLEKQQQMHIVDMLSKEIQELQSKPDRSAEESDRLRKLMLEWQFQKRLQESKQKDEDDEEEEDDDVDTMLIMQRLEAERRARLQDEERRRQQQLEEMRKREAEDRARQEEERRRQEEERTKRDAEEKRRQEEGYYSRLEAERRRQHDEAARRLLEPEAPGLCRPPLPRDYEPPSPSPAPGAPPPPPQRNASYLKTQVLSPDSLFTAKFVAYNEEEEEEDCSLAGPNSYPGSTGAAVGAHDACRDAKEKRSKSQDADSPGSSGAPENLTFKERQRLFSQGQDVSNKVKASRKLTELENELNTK
Briefly: G' assay (10 uM PL peptide), results of TABLE 7 and TABLE 12. Conditions: PDZ AF6, PDZ Domain 1. An outline of the steps: (§1)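 Binding classes derive from A450 nm of bound biotin-tagged PL peptide. A score of 5 needs A450 above 4 in more than two repeats.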

Experiment [3] has as its target T3, PDZ protein (GST-PDZ fusion) (Homo sapiens, UniProt O00560).
T3 construct: made in house; host or cells: E. coli (DH5alpha, BL21 or JM109)
T3 sequence (O00560 1-298): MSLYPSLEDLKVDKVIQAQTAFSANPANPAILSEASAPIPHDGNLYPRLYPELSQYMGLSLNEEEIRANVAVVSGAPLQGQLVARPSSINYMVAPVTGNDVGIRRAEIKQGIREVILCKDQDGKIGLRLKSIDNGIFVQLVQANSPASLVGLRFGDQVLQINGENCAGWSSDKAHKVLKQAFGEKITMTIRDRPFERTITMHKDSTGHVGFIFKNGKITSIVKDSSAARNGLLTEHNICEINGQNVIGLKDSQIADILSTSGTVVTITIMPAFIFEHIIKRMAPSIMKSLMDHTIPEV
Described as above. Conditions: PDZ hSyntenin, PDZ Domain 1. An outline of the steps:
as §1

Like-named read-outs stand apart in the source and are kept apart here. Ends that are not written are not given here. Peptide text beside a SMILES is read from it. * marks the point of attachment. Biotin = O=C1N[C@H]2[C@H](CS[C@H]2CCCCC(=O)*)N1

As to `CC(C)C[C@H](NC(=O)[C@H](C)NC(=O)[C@H](CO)NC(=O)CNC(=O)[C@@H](NC(=O)CCCC[C@@H]1SC[C@@H]2NC(=O)N[C@@H]21)[C@@H](C)O)C(=O)N[C@@H](CCC(N)=O)C(=O)N[C@@H](C)C(=O)N[C@@H](Cc1c[nH]c2ccccc12)C(=O)N[C@@H](CCCNC(=N)N)C(=O)N[C@@H](Cc1c[nH]cn1)C(=O)N[C@H](C(=O)N[C@@H](CO)C(=O)N[C@@H](CCCNC(=N)N)C(=O)N[C@@H](CCC(N)=O)C(=O)N[C@@H](C)C(=O)N[C@H](C(=O)N[C@@H](CCC(=O)O)C(=O)N[C@@H](CO)C(=O)N[C@H](C(=O)N[C@H](C(=O)O)C(C)C)[C@@H](C)O)[C@@H](C)O)[C@@H](C)O` [HPV E6 #66 (modified)] (Biotin-TGSALQAWRHTSRQATESTV-OH; C-terminus assumed), the Kd turned out to be 1000 nM in experiment [1] (PDZ Domain 1, 2, read-out: Peptide Optimal Conc (Kd by titration of the PL peptide)) and 3500 nM in experiment [1] (PDZ Domain 2, read-out: Peptide Optimal Conc (Kd by titration of the PL peptide)).

On to “GPVPGEPAKPKTSAHHATFV (Biotin-GPVPGEPAKPKTSAHHATFV)”, for which, in experiment [2], the Classification is given as 1 (A450 nm 0-1).

As for “KTMPAAMFRLLTGQETPLYI (Biotin-KTMPAAMFRLLTGQETPLYI) [MINT-2]”, the Classification in experiment [3] is on record as 2 (A450 nm 1-2).

On to `CC[C@H](C)[C@H](NC(=O)[C@H](Cc1ccc(O)cc1)NC(=O)[C@H](CC(C)C)NC(=O)[C@H](CCC(N)=O)NC(=O)[C@H](Cc1c[nH]cn1)NC(=O)[C@H](CO)NC(=O)[C@H](C)NC(=O)[C@H](CC(C)C)NC(=O)[C@@H](NC(=O)[C@H](CC(=O)O)NC(=O)[C@H](CCSC)NC(=O)[C@H](Cc1ccccc1)NC(=O)[C@@H]1CCCN1C(=O)[C@H](CCCNC(=N)N)NC(=O)[C@@H](NC(=O)[C@H](CC(C)C)NC(=O)[C@H](CC(N)=O)NC(=O)[C@H](CC(=O)O)NC(=O)[C@@H](NC(=O)[C@H](CO)NC(=O)CCCC[C@@H]1SC[C@@H]2NC(=O)N[C@@H]21)[C@@H](C)O)C(C)C)[C@@H](C)O)C(=O)O` [presenilin-2] (Biotin-STDNLVRPFMDTLASHQLYI-OH; C-terminus assumed), for which the Classification in experiment [2] is on record as 3 (A450 nm 2-3).

With `CC[C@H](C)[C@H](NC(=O)[C@H](Cc1ccc(O)cc1)NC(=O)[C@@H](NC(=O)[C@@H]1CCCN1C(=O)[C@H](CCC(N)=O)NC(=O)[C@H](CCC(=O)O)NC(=O)[C@H](CCC(N)=O)NC(=O)[C@H](C)NC(=O)[C@@H](NC(=O)[C@H](CC(C)C)NC(=O)[C@H](CC(C)C)NC(=O)[C@H](CCCNC(=N)N)NC(=O)[C@H](Cc1ccc(O)cc1)NC(=O)[C@H](CCSC)NC(=O)[C@H](C)NC(=O)[C@H](C)NC(=O)[C@@H]1CCCN1C(=O)[C@H](CCSC)NC(=O)[C@@H](NC(=O)[C@H](CCCCN)NC(=O)CCCC[C@@H]1SC[C@@H]2NC(=O)N[C@@H]21)[C@@H](C)O)[C@@H](C)O)C(C)C)C(=O)O` [MINT-1] (Biotin-KTMPAAMYRLLTAQEQPVYI-OH; C-terminus assumed), in experiment [3], the Classification was 3 (A450 nm 2-3).

Consider `CC[C@H](C)[C@H](NC(=O)[C@H](CCCCN)NC(=O)[C@@H](NC(=O)[C@H](CO)NC(=O)[C@@H]1CCCN1C(=O)[C@H](Cc1ccccc1)NC(=O)[C@@H](NC(=O)[C@@H](NC(=O)[C@H](CCCNC(=N)N)NC(=O)[C@H](CCC(=O)O)NC(=O)[C@H](CC(C)C)NC(=O)[C@H](CC(C)C)NC(=O)[C@H](CC(C)C)NC(=O)[C@@H](NC(=O)CNC(=O)[C@@H](NC(=O)CCCC[C@@H]1SC[C@@H]2NC(=O)N[C@@H]21)C(C)C)[C@@H](C)O)C(C)C)[C@@H](C)CC)C(C)C)C(=O)N[C@@H](C)C(=O)N[C@H](C(=O)N[C@@H](CC(C)C)C(=O)N[C@H](C(=O)O)C(C)C)[C@@H](C)O` [Adenovirus E4 Type9], for which, in experiment [1] (PDZ Domain 2, Protein Optimal Conc 5, read-out: Peptide Optimal Conc (Kd by titration of the PL peptide)), the Kd is 100 nM.

For `CC[C@H](C)[C@H](NC(=O)[C@H](CO)NC(=O)[C@@H](NC(=O)[C@H](Cc1ccccc1)NC(=O)[C@H](CO)NC(=O)CCCC[C@@H]1SC[C@@H]2NC(=O)N[C@@H]21)[C@@H](C)O)C(=O)N[C@@H](CC(C)C)C(=O)N[C@H](C(=O)N[C@@H](CS)C(=O)N[C@@H](Cc1c[nH]cn1)C(=O)N[C@@H](CCC(N)=O)C(=O)N[C@@H](CCCNC(=N)N)C(=O)N[C@@H](CCCNC(=N)N)C(=O)N[C@H](C(=O)N[C@@H](CCC(N)=O)C(=O)N[C@@H](CCCNC(=N)N)C(=O)N[C@@H](CCCCN)C(=O)N[C@@H](CCC(=O)O)C(=O)N[C@H](C(=O)N[C@H](C(=O)N[C@@H](C)C(=O)O)C(C)C)[C@@H](C)O)[C@@H](C)O)[C@@H](C)O` [GluR5-2 (rat)], the Kd in experiment [1] (PDZ Domain 1, 2, titration of the PL peptide, read-out: Peptide Optimal Conc (Kd, dissociation constant)) was determined as 100 nM.

As for “ELLQFCRTPNPALKNGQYWV (Biotin-ELLQFCRTPNPALKNGQYWV)”, the figures for the Classification in experiment [3] and in experiment [2] were 2 (A450 nm 1-2) and 5 (A450 nm of 4 more than 2× repeated), respectively.

In the case of “KTMPAATYRLLTGQEQPVYL (Biotin-KTMPAATYRLLTGQEQPVYL) [MINT-3]”, in experiment [2], the Classification was 1 (A450 nm 0-1).
